Columns and labels:
Assay type in all cases: cell-based
CXCR3 [1] = target: T1, CXCR3 (Homo sapiens, UniProt P49682); assay: Chemotaxis assay IP10, L1.2 recombinant cells expressing hCXCR3; settings: L1.2 hCXCR3 cells, IP10 around 0.3 nM, 4 hours
T1 sequence (P49682 1-368): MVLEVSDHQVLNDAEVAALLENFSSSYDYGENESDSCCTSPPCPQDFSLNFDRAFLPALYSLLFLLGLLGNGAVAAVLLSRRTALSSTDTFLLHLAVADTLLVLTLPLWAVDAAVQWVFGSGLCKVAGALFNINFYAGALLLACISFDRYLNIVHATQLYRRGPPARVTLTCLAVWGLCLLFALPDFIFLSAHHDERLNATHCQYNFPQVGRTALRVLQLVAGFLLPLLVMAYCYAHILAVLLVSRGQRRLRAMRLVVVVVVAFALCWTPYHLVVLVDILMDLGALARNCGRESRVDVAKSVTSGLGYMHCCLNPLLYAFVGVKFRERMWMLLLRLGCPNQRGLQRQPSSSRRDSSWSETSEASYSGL
Protocol: (§1) Human CXCR3 cDNA was amplified by PCR from a human cells cDNA library (Clontech) and subcloned into pcDNA3.1 (Invitrogen). Murine pre-B L1.2 cells were transfected with hCXCR3-pcDNA3.1 and were grown at 37° C., 5% CO2 in RPMI 1640 medium (Invitrogen, USA) supplemented with 5% heat inactivated fetal calf serum (Cancerra, Australia), 2 mM glutamine (Invitrogen), 50 units ml−1 penicillin, 50 μml−1 streptomycin. Stable transfectant clonal populations were selected using 800 μg/ml geneticin.
L1.2 recombinant cells expressing the receptor hCXCR3 were maintained in culture in RPMI 1640 (invitrogen), 5% Foetal Bovine Serum (invitrogen), 2 mM glutamine(invitrogen), 50 u/ml penicillin/streptomycin (invitrogen), at 37° C.-5% CO2—in an H2O saturated incubator. In order to stimulate the expression of the receptor, cells were incubated overnight with 5 mM butyric acid (Sigma)
This mix of cells/compounds was then incubated at 37° C.-5% CO2—in an H2O saturated incubator during 30 minutes. Cells were then dispensed as a drop on each corresponding wells of the chemotaxis system. Cell migration was then induced at 37° C.-5% CO2—in an H2O incubator during 4 hours. Filters were then removed and cells that had migrated were transferred in a black plate (Costar). The plates were stored overnight at −80° C. Cell migration ratio was calculated using the cyquant dye (Molecular Probes-C7026).

CXCR3 [2] = target: T1, CXCR3; assay: CXCR3 Ca2+ mobilization (FLIPR), stable hCXCR3-CHO cell line, I-TAC stimulated; design: host or cells: CHO cells stably expressing hCXCR3; settings: hCXCR3-CHO cells, I-TAC 100 nM stimulated Ca2+ response; read-out: Ca-ITAC
In short: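 Ca2+ mobilization triggered by I-TAC (100 nM) measured by FLIPR in a stable hCXCR3-CHO line. Dye-loaded (60 min) cells preincubated with compounds 20 minutes at room temperature; antagonism given relative to the compound-free I-TAC signal set at 100%.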

CXCR3 [3] = target: T1, CXCR3; assay: Chemotaxis assay ITAC (CXCL11), L1.2-CXCR3 cells; design: expressed in transfected cells; settings: 1 nM CXCL11 (I-TAC), 4 hours
Protocol: as §1
L1.2-CXCR3 cells were grown for 24 hours at 0.5×10^6 cells/ml in chemotaxis medium containing 5 mM butyric acid (Sigma). Compounds were on one hand mixed with 1 nM of CXCL11 (I-TAC) in phenol-red free RPMI 1640 (invitrogen) supplemented with 5% fetal bovine serum in presence of 1% DMSO. The CXCL11/compounds mixture was then added to lower chambers of chemotaxis 96 well microplates (neuroprobe), and framed filters ([…] pore size) were put on top of the lower chambers. Compounds were on the other hand mixed with L1.2 CXCR3 cells and incubated in chemotaxis medium at 1.5×10^6 cells/ml in presence of 1% DMSO at 37° C., 5% CO2 for 30 minutes. Cells/compounds mixture was then added on top of the frame filters and migration was performed at 37° C., 5% CO2 for 4 hours. The number of migrated cells in the bottom chamber was determined using the CyQuant GR dye (Molecular Probe), according to the manufacturer.

Work on `O=C(NCc1cccc(Cl)c1)c1ccc(CN(Cc2ccccc2)S(=O)(=O)c2ccc(Cl)cc2)cc1` [Example 1, 4-({benzyl[(4-chlorophenyl)sulfonyl]amino}methyl)-N-(3-chlorobenzyl)benzamide] yielded an IC50 (CXCR3 [1]) of 1.29 µM.

For `O=C(NC[C@@H]1CCCO1)c1ccc(CN(Cc2ccccc2)S(=O)(=O)c2ccc(Cl)cc2)cc1` [Example 3, 4-({benzyl[(4-chlorophenyl)sulfonyl]amino}methyl)-N-[(2S)-tetrahydrofuran-2-ylmethyl]benzamide], the IC50 (CXCR3 [1]) was 2.27 µM.

For `O=C(NCCc1cccc([N+](=O)[O-])c1)c1ccc(CN(Cc2ccccc2)S(=O)(=O)c2ccc(Cl)cc2)cc1` [Example 4, 4-({benzyl[(4-chlorophenyl)sulfonyl]amino}methyl)-N-[2-(3-nitrophenyl)ethyl]benzamide], the IC50 (CXCR3 [1]) was 2.45 µM.

For `COc1ccc(S(=O)(=O)N(Cc2ccc(C(=O)NCc3cccc(Cl)c3)cc2)Cc2cccnc2)cc1` [Example 9, N-(3-chlorobenzyl)-4-{[[(4-methoxyphenyl)sulfonyl](pyridin-3-ylmethyl)amino]methyl}benzamide], the IC50 (CXCR3 [1]) was 1.15 µM.

`COc1ccc(S(=O)(=O)NC(=O)c2ccc(CN(Cc3ccccn3)S(=O)(=O)c3ccc(Cl)cc3)cc2)cc1` [Example 14, 4-{[[(4-chlorophenyl)sulfonyl](pyridin-2-ylmethyl)amino]methyl}-N-[(4-methoxyphenyl)sulfonyl]benzamide] was tested, and the IC50 (CXCR3 [1]) was 3.87 µM.

For `O=C(NS(=O)(=O)Cc1cccc([N+](=O)[O-])c1)c1ccc(CN(Cc2ccccc2)S(=O)(=O)c2ccc(Cl)cc2)cc1` [Example 15, 4-({benzyl[(4-chlorophenyl)sulfonyl]amino}methyl)-N-[(3-nitrobenzyl)sulfonyl]benzamide], the IC50 (CXCR3 [1]) was 2.42 µM.

Work on `O=S(=O)(c1ccc(Cl)cc1)N(Cc1ccc(-c2nnc(O)o2)cc1)Cc1ccccn1` [Example 19, 4-chloro-N-[4-(5-hydroxy-1,3,4-oxadiazol-2-yl)benzyl]-N-(pyridin-2-ylmethyl)benzene sulfonamide] yielded an IC50 (CXCR3 [1]) of 0.695 µM.

`O=S(=O)(c1ccc(Cl)cc1)N(Cc1ccc(-c2nnn[nH]2)cc1)Cc1ccccc1F` [Example 20, 4-chloro-N-(2-fluorobenzyl)-N-[4-(1H-tetrazol-5-yl)benzyl]benzene sulfonamide] showed an IC50 (CXCR3 [1]) of 0.47 µM.

In the case of `O=S(=O)(c1ccc(Cl)cc1)N(Cc1ccc(-c2nnn[nH]2)cc1)Cc1cccc(Cl)c1` [Example 21, 4-chloro-N-(3-chlorobenzyl)-N-[4-(1H-tetrazol-5-yl)benzyl]benzenesulfonamide], the IC50 (CXCR3 [1]) is reported as 1.29 µM.

With `O=S(=O)(c1ccc(Cl)cc1)N(Cc1ccc(F)cc1)Cc1ccc(-c2nnn[nH]2)cc1` [Example 22, 4-chloro-N-(4-fluorobenzyl)-N-[4-(1H-tetrazol-5-yl)benzyl]benzenesulfonamide] the IC50 (CXCR3 [1]) was 2.56 µM.

In the case of `COc1cccc(CN(Cc2ccc(-c3nnn[nH]3)cc2)S(=O)(=O)c2ccc(Cl)cc2)c1` [Example 23, 4-chloro-N-(3-methoxybenzyl)-N-[4-(1H-tetrazol-5-yl)benzyl]benzene sulfonamide], the IC50 (CXCR3 [1]) is reported as 1.46 µM.

For `COc1ccc(CN(Cc2ccc(-c3nnn[nH]3)cc2)S(=O)(=O)c2ccc(Cl)cc2)cc1` [Example 24, 4-Chloro-N-(4-methoxy-benzyl)-N-[4-(1H-tetrazol-5-yl)-benzyl]-benzenesulfonamide], the IC50 (CXCR3 [1]) was 0.885 µM.

Compound `O=S(=O)(c1ccc(Cl)cc1)N(Cc1ccc(Cl)cc1)Cc1ccc(-c2nnn[nH]2)cc1` [Example 25, 4-chloro-N-(4-chlorobenzyl)-N-[4-(1H-tetrazol-5-yl)benzyl]benzenesulfonamide] has an IC50 (CXCR3 [1]) of 0.882 µM.

Compound `O=C(NCC1CC1)c1ccc(CN(Cc2ccccc2F)S(=O)(=O)c2ccc(Cl)cc2)cc1` [Example 29, 4-{[(4-Chloro-benzenesulfonyl)-(2-fluoro-benzyl)-amino]-methyl}-N-cyclopropyl methyl benzamide] has an IC50 (CXCR3 [1]) of 0.51 µM and an IC50 (CXCR3 [2]) of 1000 nM.

Compound `O=C(NCC1CC1)c1ccc(CN(Cc2ccccc2)S(=O)(=O)c2ccc(Cl)nc2)cc1` [Example 37, 4-{[benzyl({[2-chloropyridine)l]sulfonyl)amino]methyl}-N(cyclopropylmethyl)benzamide] has an IC50 (CXCR3 [1]) of 0.328 µM and an IC50 (CXCR3 [2]) of 3350 nM.

Work on `N#Cc1ccc(S(=O)(=O)N(Cc2ccc(C(=O)NCC3CC3)cc2)Cc2ccccn2)cc1` [Example 43] yielded an IC50 (CXCR3 [1]) of 0.36 µM and an IC50 (CXCR3 [2]) of 4750 nM.

With `Cc1noc(C)c1CN(Cc1ccc(-c2nnn[nH]2)cc1)S(=O)(=O)c1ccc(Cl)cc1` [Example 58, 4-chloro-N-[(3,5-dimethylisoxazol-4-yl)methyl]-N-[4-(2H-tetrazol-5-yl)benzyl]benzene sulfonamide] the IC50 (CXCR3 [1]) was 1.43 µM.

Compound `O=S(=O)(c1ccc(Cl)cc1)N(Cc1ccc(-c2nnn[nH]2)cc1)Cc1ncco1` [Example 59, 4-chloro-N-(1,3-oxazol-2-ylmethyl)-N-[4-(2H-tetrazol-5-yl)benzyl]benzene sulfonamide] has an IC50 (CXCR3 [1]) of 3.67 µM.

`COC(=O)C(NC(=O)c1ccc(CN(Cc2ccccn2)S(=O)(=O)c2ccc(Cl)cc2)cc1)c1ccc(F)c(F)c1` (stereo not drawn) [Example 147] was tested, and the IC50 (CXCR3 [3]) was 82 nM and the IC50 (CXCR3 [2]) was 400 nM.

Compound `O=C(NC(C(=O)O)c1ccc(F)c(F)c1)c1ccc(CN(Cc2ccccn2)S(=O)(=O)c2ccc(Cl)cc2)cc1` (stereo not drawn) [Example 149, (4-{[(4-Chloro-benzenesulfonyl)-pyridin-2-ylmethyl-amino]-methyl}-benzoylamino)-(3,4-difluoro-phenyl)-acetic acid] has an IC50 (CXCR3 [3]) of 73 nM and an IC50 (CXCR3 [2]) of 100 nM.

For `COC(=O)c1ccc(S(=O)(=O)N(Cc2ccc(C(=O)NC3(c4ccccc4)CC3)cc2)Cc2ccccn2)cc1` [Example 150], the IC50 (CXCR3 [3]) was 10 nM and the IC50 (CXCR3 [2]) was 300 nM.

`N#Cc1ccc(S(=O)(=O)N(Cc2ccc([N+](=O)[O-])cc2)Cc2ccccn2)cc1` [Example 158] was tested, and the IC50 (CXCR3 [3]) was 4800 nM and the IC50 (CXCR3 [2]) was 1000 nM.

`O=S(=O)(c1cccc(-c2ccccc2)c1)N(Cc1ccc(-c2nnn[nH]2)cc1)Cc1ccccn1` [Example 166] was tested, and the IC50 (CXCR3 [3]) was 9050 nM and the IC50 (CXCR3 [2]) was 1430 nM.

In the case of `C[C@@H](c1ccc(NC(=O)C2(c3ccccc3)CC2)cc1)N(Cc1ccccn1)S(=O)(=O)c1ccc(C#N)cc1` [Example 167], the IC50 (CXCR3 [3]) is reported as 1960 nM and the IC50 (CXCR3 [2]) is reported as 250 nM.

`CC(=O)OC(C(=O)Nc1ccc(CN(Cc2ccccn2)S(=O)(=O)c2ccc(Cl)cc2)cc1)c1ccccc1` (stereo not drawn) [Example 169] gave an IC50 (CXCR3 [3]) of 10 nM and an IC50 (CXCR3 [2]) of 700 nM.

`O=C(Nc1ccc(CN(Cc2ccccn2)S(=O)(=O)c2ccc(Cl)cc2)cc1)C(O)c1ccccc1` (stereo not drawn) [Example 170] was tested, and the IC50 (CXCR3 [3]) was 50 nM and the IC50 (CXCR3 [2]) was 400 nM.

Compound `O=S(=O)(c1ccc(Cl)cc1)N(Cc1ccc(-c2nnn[nH]2)cc1)C1CCc2cc(Cl)ccc21` (stereo not drawn) [Example 179] has an IC50 (CXCR3 [3]) of 8860 nM and an IC50 (CXCR3 [2]) of 350 nM.

In the case of `NC(C(=O)Nc1ccc(CN(Cc2ccccn2)S(=O)(=O)c2ccc(Cl)cc2)cc1)c1ccccc1` (stereo not drawn) [Example 181], the IC50 (CXCR3 [3]) is reported as 94 nM and the IC50 (CXCR3 [2]) is reported as 150 nM.

Work on `CC(=O)NC(C(=O)Nc1ccc(CN(Cc2ccccn2)S(=O)(=O)c2ccc(Cl)cc2)cc1)c1ccccc1` (stereo not drawn) [Example 185] yielded an IC50 (CXCR3 [3]) of 30 nM and an IC50 (CXCR3 [2]) of 300 nM.

Compound `CCOc1ccc(S(=O)(=O)N(Cc2ccc(C(=O)OC)c(OC)c2)Cc2ccccn2)cc1` [Example 188] has an IC50 (CXCR3 [3]) of 3800 nM and an IC50 (CXCR3 [2]) of 10500 nM.

In the case of `CCOc1ccc(S(=O)(=O)N(Cc2ccc(C(=O)NC3(c4ccccc4)CC3)c(OC)c2)Cc2ccccn2)cc1` [Example 189], the IC50 (CXCR3 [3]) is reported as 280 nM and the IC50 (CXCR3 [2]) is reported as 2000 nM.

`N#Cc1cccc(CN(Cc2ccccn2)S(=O)(=O)c2ccc(Cl)cc2)c1` [Example 195] showed an IC50 (CXCR3 [3]) of 6810 nM and an IC50 (CXCR3 [2]) of 4200 nM.

`COC(=O)[C@@H](NC(=O)c1ccc(CN(Cc2ccccn2)S(=O)(=O)c2ccc(Cl)cc2)cc1)c1ccccc1` [Example 342] showed an IC50 (CXCR3 [3]) of 54 nM and an IC50 (CXCR3 [2]) of 800 nM.
